In publication PMC8509676, “Residual Helicity at the Active Site of the Histidine Phosphocarrier, HPr, Modulates Binding Affinity to Its Natural Partners” (International Journal of Molecular Sciences, 2021):

Tests used:
[1] = biological target: EIN^sc (N-terminal domain of EI^sc) (Streptomyces coelicolor, UniProt Q9KZP1); assay: biochemical; format: binding
Experimental: (§1) The experimental set-up and data processing of ITC experiments has been described previously. Rsd^ec or EIN^sc (at 10–20 µM) were injected into the cell, and the peptides in the syringe (100–200 µM) in 50 mM of Tris buffer, pH 7.0. The temperature for all the experiments was 25 °C. Typically, each calorimetric titration consisted of performing 19 injections with 2 μL volume, with a time spacing of 150 s, while stirring at 750 rpm in an Auto-iTC200 high-sensitivity microcalorimeter (MicroCal, Malvern-Panalytical, Malvern, UK). The results were analysed by applying a model that considered a single binding site (assuming a 1:1 stoichiometry) for the peptide/EIN^sc or peptide/Rsd^ec interaction using a nonlinear least-squares regression analysis in Origin 7.0 (OriginLab, Northampton, MA, USA) with user-defined fitting routines.

[2] = biological target: T1, Rsd^ec (Escherichia coli, UniProt P0AFX4); assay: Isothermal titration calorimetry (ITC), peptide/Rsd^ec binding; details: ITC, 25 °C, 50 mM Tris pH 7.0
T1 construct: His-tag; made in house; host or cells: E. coli C41
Experimental: as §1

[3] = tested on: Staphylococcus aureus CECT59; format: cell-based; details: S. aureus CECT59, two-fold broth microdilution (CLSI), MH broth, 24 h, 37 °C; triplicate (sd = 0); highest concentration tested 400 µM
Experimental: The CECT59 strain of the Gram-positive bacteria Staphylococcus aureus from the Spanish Type Culture Collection (Colección Española de Cultivos Tipo, CECT, Universitat de Valencia, Spain) was used for determining its sensitivity to the HPr peptides studied in this work. The MIC for each peptide was determined by the two-fold broth microdilution method according to the Clinical and Laboratory Standards Institute (CLSI) guidelines, with some modifications as previously described. For this testing procedure, a bacteria colony previously grown in MH agar plates was isolated and incubated in MH broth at 37 °C overnight to prepare the bacteria inoculum to be used in each assay. Then, the bacteria suspensions were adjusted to a 100× dilution of an 0.5 McFarland turbidity standard in MH broth and incubated with different concentrations of each peptide in round-bottom 96-well polystyrene plates (Deltalab S.L., Rubí, Spain) (50 μL/well) for 24 h at 37 °C. The peptide concentrations employed comprised two-fold dilutions starting at either 120, 160, or 400 µM, depending on the experiment. […] All assays were performed in triplicate.

[4] = TFE titration followed by far-UV CD (disordered-helical two-state equilibrium); format: physicochemical
Experimental: For experiments in the presence of TFE, the same set of experimental parameters was used. Cosolvent concentrations were indicated in percentage of volume (%). […] The peptide concentration for these experiments was 20 µM.

[5] = Translational diffusion NMR (DOSY); format: physicochemical
Experimental: (b) Translational diffusion NMR (DOSY): Peptide concentrations were the same as those used in the 1D-^1H-NMR spectra. Translational self-diffusion measurements were performed with the pulsed-gradient spin-echo sequence in the presence of 100% D2O. The following relationship existed between the translational self-diffusion coefficient, D, and the delays used during experiment acquisition:(2) I/I0=−exp(DγH2δ^2G^2(Δ−δ/3−τ/2)) where I is the peak intensity of a particular resonance (or a group of them) at any gradient strength; I0 is the maximum peak intensity of the same resonance(s) at the smallest gradient strength (that is, at 2% of the total power of the gradient coil); D is the translational self-diffusion constant (in cm^2 s^−1); δ is the duration (in s) of the gradient; G is the gradient strength (in T cm^−1); ∆ is the time (in s) between the gradients; γH is the gyromagnetic constant of the proton (in rad s^−1 T^−1); and τ is the recovery delay between the bipolar gradients (100 µs in our experiments). The gradient strength (G) was varied in 16 lineal steps, between 2 and 95% of the total power of the gradient coil of the probe. The gradient strength was calibrated by using the value of D for the residual proton water line in a sample containing 100% D2O placed in a 5 mm tube [42]. Data were plotted as I/I0 versus G^2, and the exponential factor of the curve was:(3) DγH2δ^2(Δ−δ/3−τ/2) from which D can be obtained. The duration of the gradient (δ) was 2.25 ms, and the time between the two gradients (∆) was set to 200 ms. The signal from the methyl groups between 1.1 and 0.70 ppm were used for integration of the intensity. A final concentration of 1% of dioxane was added to each peptide; the hydrodynamic radius, Rh, of each peptide was obtained for comparison by assuming that the Rh of dioxane was 2.12 Å [42]. The DOSY experiment was repeated twice with fresh samples for each peptide.

[6] = aqueous solution; cited from earlier work
From the text: Streptomyces is an actinomycete, Gram-positive organism with high content of G + C base pairs in its genome. We have carried out an extensive description of the structures and conformational stabilities of HPr^sc (O50515) and EI (EI^sc) (Q9KZP1) to understand their binding in the PTS cascade. We have also characterized the interaction of EI^sc with wild-type HPr^sc and that of the phosphorylated species, as well as that of the N-terminal domain of EI^sc (EIN^sc) with intact HPr^sc. We have also shown that the peptide comprising residues Ala9-Gly3 ...

[7] = TFE titration by far-UV CD, 20 µM peptide, two-state fit, fitting errors

EIN^sc (N-terminal domain of EI^sc), sequence (Q9KZP1 1-230): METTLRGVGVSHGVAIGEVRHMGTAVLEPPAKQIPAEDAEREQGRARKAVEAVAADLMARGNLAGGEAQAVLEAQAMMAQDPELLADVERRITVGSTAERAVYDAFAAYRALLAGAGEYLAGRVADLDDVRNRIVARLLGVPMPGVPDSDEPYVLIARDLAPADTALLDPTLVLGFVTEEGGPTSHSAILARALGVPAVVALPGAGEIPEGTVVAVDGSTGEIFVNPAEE
T1 sequence (P0AFX4 whole entry): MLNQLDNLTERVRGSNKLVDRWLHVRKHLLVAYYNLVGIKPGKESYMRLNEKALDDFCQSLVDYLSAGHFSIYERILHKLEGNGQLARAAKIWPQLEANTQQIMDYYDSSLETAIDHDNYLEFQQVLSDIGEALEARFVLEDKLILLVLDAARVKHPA

Ac-GWAEGLHARPASIFVRAATATG-NH2 [Wild-type]
Kd [1]: 2.3 ± 0.4 µM
ΔH, EIN^sc ([1]; ITC, 25 °C, 50 mM Tris pH 7.0): -0.8 ± 0.4 kcal/mol
ΔH, Rsd^ec [2]: 1.3 ± 0.4 kcal/mol
MIC [3]: 40 µM
[TFE]1/2 [4, 7]: 23.2 ± 0.5 % (v/v)
m [4, 7]: 166 ± 23 cal/mol (% (v/v))
percentage of helical population (in parentheses) ([4]; from ∆G^water assuming a two-state conformational equilibrium): 0.10%
∆G^water ([4]; product of m- and [TFE]1/2 values, error propagation): 3.8 ± 0.5 kcal/mol
D (translational diffusion coefficient) ([5]; DOSY, 10 °C, 100% D2O, 70-120 µM peptide, fitting errors, repeated twice): 1.95 ± 0.03 cm^2 s^−1 × 10^6
Rh (in parentheses, from DOSY) ([5]; from comparison with the Rh of dioxane (2.12 Å)): 11 ± 1 Å
helical population [6]: about 7%
